Test results reported in patent publication US20120196918A1, “PREVENTING ISLET INFLAMMATION AND DYSFUNCTION AND MAINTAINING PROPER GLUCOSE LEVELS BY CONTROLLING eIF5A AND ITS HYPUSINATION” (priority 2009, published 2012).

Tests used:
eIF5A = eIF5A and eIF5A-Hyp levels in islets isolated from siRNA-injected mice (immunoblot, 3H-spermidine); type: in vivo, mouse; conditions: si-eIF5A i.p. for three days
Protocol: To clarify this, islets were isolated from siRNA-injected mice and their function assessed in vitro. […] In order to further characterize this improvement in islet glucose responsiveness, glucose-stimulated Ca2+ mobilization (GSCa) studies were also performed. GSCa is a measure of islet glucose sensitivity that captures the dynamics of the islet glucose response, which is similar to GSIS (31). The GSCa, as measured by the change in fura-2 AM fluorescence ratio after glucose stimulation, was increased in si-eIF5A-treated islets compared to controls, reflecting the functional improvement seen in GSIS (FIG. 3D). This improved GSCa relative to controls persisted 48 and 72 hours post-isolation (data not shown). […]
Immunoblot and nitrite and iNOS assays: Whole cell extracts were resolved by electrophoresis on a 4-20% SDS-polyacrylamide gel, followed by immunoblot using anti-eIF5A1, anti-eIF5A2, anti-iNOS, anti-GFP, or anti-actin primary antibodies and fluorophore-labeled secondary antibodies. Immunoblots were visualized using the Li-Cor® Odyssey® system (Li-Cor Biosciences) and quantitated by scanning fluorometry using Odyssey Imaging v. […] Nitrite was quantitated by measuring nitric oxide-derived nitrite from INS-1 cell culture medium using the Griess reagent (Promega) according to the manufacturer's recommendations. iNOS activity was measured using a commercially available kit (Cayman). […]

eIF5A-Hyp = test: New hypusine formation (3H-spermidine incorporation) in INS-1 (832/13) cells; type: cell-based, rat; conditions: GC7 125 μM overnight
Text: eIF5A1 and eIF5A2 are the only proteins known to contain the unique amino acid hypusine at position 50. Hypusine is formed as a posttranslational modification of residue Lys50 in a reaction requiring spermidine and catalyzed by the sequential actions of the enzymes deoxyhypusine synthase (DHS) and deoxyhypusine hydroxylase (DOHH) (Chen, K Y, and Liu, A Y. Biochemistry and function of hypusine formation on eukaryotic initiation factor 5A. Biol Signals. 1997; 6(3):105-109). […] To further investigate the mechanism of eIF5A-regulated translation of Nos2, studies were performed following overnight incubation of cells with mimosine (an inhibitor of DOHH) and GC7 (an inhibitor of DHS). […] Similar data using GC7 were obtained in primary mouse islets (data not shown) and in human islets (FIGS. 5F and 5G). […]
Measurement of hvpusination: Approximately 100 islets or 1×10^6 INS-1 cells per condition were incubated with 1.5 μCi ^3H-spermidine (Perkin Elmer) in the presence of 1 mM aminoguanidine. […] Gels were visualized by fluorography, and bands were quantitated using Kodak Molecular Imaging Software v. […]

INS-1 cells = test: GSCa and GSIS of INS-1 cells exposed to cytokines; type: cell-based, rat; conditions: preincubation with 125 μM GC7, cytokines 4 h
Protocol: GSCa and GSIS studies were carried out to assess INS-1 cell function in the presence of cytokines and GC7. […] This asynchronous pattern may be related to the dispersed nature of insulinoma cells compared to f3 cells in an intact islet.
Cytokine and inhibitor incubation studies: For cytokine incubation assays, a 1000× cocktail of cytokines containing 5 μg/ml IL1β, 10 μg/ml TNFα, and 100 μg/ml IFNγ (all prepared in 0.1% BSA in Tris-buffered saline) was applied at 1× final concentration to groups of 50 islets or 1×10^6 INS-1 (832/13) cells for a total of 4 h at 37° C. For GC7 incubation studies, GC7 was prepared at a stock concentration of 125 mM in 10 mM acetic acid and applied to cultures of 50 islets or 1×10^6 INS-1 cells to obtain the final concentrations indicted in the figures. Where needed, GC7 was protected from amine oxidases in serum by addition of 1 mM aminoguanidine (Sigma). Cells were incubated with GC7 overnight (˜16 h) at 37° C. prior to analysis. […]
GSCa imaging assays: Intracellular Ca^2+ ((Ca2+)i) was measured using the ratiometric Ca^2+ indicator fura-2 AM using a modification of previously published methods (79). The glucose-stimulated (Ca2+)i response (GSCa) was defined as the difference between ratio measurements (340/380 nm fluorescence) in 11 mM vs. 3 mM glucose. Data were analyzed with IP Lab's software version 4.0 (Scanalytics). […]

iNOS = test: Cytokine-induced iNOS protein in INS-1 cells (immunoblot); type: cell-based, rat
Text: eIF5A1 and eIF5A2 are the only proteins known to contain the unique amino acid hypusine at position 50. Hypusine is formed as a posttranslational modification of residue Lys50 in a reaction requiring spermidine and catalyzed by the sequential actions of the enzymes deoxyhypusine synthase (DHS) and deoxyhypusine hydroxylase (DOHH) (Chen, K Y, and Liu, A Y. Biochemistry and function of hypusine formation on eukaryotic initiation factor 5A. Biol Signals. 1997; 6(3):105-109). […] To further investigate the mechanism of eIF5A-regulated translation of Nos2, studies were performed following overnight incubation of cells with mimosine (an inhibitor of DOHH) and GC7 (an inhibitor of DHS). […] Similar data using GC7 were obtained in primary mouse islets (data not shown) and in human islets (FIGS. 5F and 5G).
Because GC7 is known to be inactivated by the action amine oxidases, which are abundant in serum, typical studies with GC7 in the literature have used aminoguanidine to inhibit amine oxidases (16). […] To rule out possible adverse effects of GC7 on cell viability, quantitative 2 color fluorescence analysis of live (calcein-AM-positive) and dead (ethidium homodimer-1-positive) cells were performed using fluorescence cytometry.
Cytokine and inhibitor incubation studies: For cytokine incubation assays, a 1000× cocktail of cytokines containing 5 μg/ml IL1β, 10 μg/ml TNFα, and 100 μg/ml IFNγ (all prepared in 0.1% BSA in Tris-buffered saline) was applied at 1× final concentration to groups of 50 islets or 1×10^6 INS-1 (832/13) cells for a total of 4 h at 37° C. For GC7 incubation studies, GC7 was prepared at a stock concentration of 125 mM in 10 mM acetic acid and applied to cultures of 50 islets or 1×10^6 INS-1 cells to obtain the final concentrations indicted in the figures. Where needed, GC7 was protected from amine oxidases in serum by addition of 1 mM aminoguanidine (Sigma). Cells were incubated with GC7 overnight (˜16 h) at 37° C. prior to analysis. Cells were exposed to Leptomycin B (Cayman Chemicals) for 3 hours; leptomycin B was prepared at a 1000× stock concentration of 20 μg/ml in ethanol.
Immunoblot and nitrite and iNOS assays: Whole cell extracts were resolved by electrophoresis on a 4-20% SDS-polyacrylamide gel, followed by immunoblot using anti-eIF5A1, anti-eIF5A2, anti-iNOS, anti-GFP, or anti-actin primary antibodies and fluorophore-labeled secondary antibodies. Immunoblots were visualized using the Li-Cor® Odyssey® system (Li-Cor Biosciences) and quantitated by scanning fluorometry using Odyssey Imaging v. […] Nitrite was quantitated by measuring nitric oxide-derived nitrite from INS-1 cell culture medium using the Griess reagent (Promega) according to the manufacturer's recommendations. iNOS activity was measured using a commercially available kit (Cayman).

Compound | reduction of eIF5A in islets (eIF5A) [%] | new hypusine formation in INS-1 (832/13) (eIF5A-Hyp) | GSCa and GSIS after cytokines (INS-1 cells) | concentration at which inhibition of iNOS was observed (iNOS; co-incubation with 1 mM aminoguanidine) [µM] | iNOS protein after cytokines (iNOS; increasing inhibitor concentrations overnight, cytokines 4 h) | concentration required to substantially block iNOS (iNOS; without aminoguanidine) [µM]
5′-AACGGAAUGACUUCCAGCUGA-3′ (siSTABLE modification, further chemistry not given here) [si-eIF5A] | ~50 |  |  |  |  | 
NCCCCCCCN=C(N)N [GC7] |  | effectively inhibits new hypusine formation | reverses the suppressive effect of cytokines on GSCa and GSIS almost completely | ~3 | dose-dependent attenuation | > 30
